These results are taken from patent US7547686B2, “Combretastatin A-3 prodrug” (Arizona Board of Regents, a body corporate of the State of …, priority 2001, dated 2009).

Each structure is given as a SMILES string. Some results are limits rather than exact numbers.

The format of data set [1] is physicochemical. The conditions noted are these: at 25° C.
Another data set deals with Cryptococcus neoformans. The data set can be described thus: Disk diffusion assay, Cryptococcus neoformans. Format: cell-based. An excerpt:
(§1) Antimicrobial susceptibility testing. Compounds were screened against the bacteria Stenotrophomonas maltophilia, Micrococcus luteus, Staphylococcus aureus, Escherichia coli, Enterobacter cloacae, Enterococcus faecalis, Streptococcus pneumoniae, Neisseria gonorrhoeae, and the fungi Candida albicans and Cryptococcus neoformans, according to established disk susceptibility testing protocols (National Committee for Clinical Laboratory Standards 1997. Performance standards for antimicrobial disk susceptibility tests-sixth edition: Approved Standard M2-A6, NCCLS, Wayne, Pa.)
In general terms: In agar diffusion tests the substance spreads into inoculated agar from a disc or well.

In data set [2] the test system is Stenotrophomonas maltophilia, Micrococcus luteus, Staphylococcus aureus, Escherichia coli, Enterobacter cloacae, Enterococcus faecalis, Streptococcus …. Particulars: Pettit et al., 2000; cited from earlier work.
For data set [3], the system named is human cancer cell lines and murine P388 lymphocytic leukemia cell line. The data set can be described thus: Cancer cell line inhibitory activity, panel as a whole (Table II). In kind it is cell-based.
The subject of data set [4] is Stenotrophomonas maltophilia, Micrococcus luteus, Staphylococcus aureus, Escherichia coli, Enterobacter cloacae, Enterococcus faecalis, Streptococcus …. In words: Antimicrobial disk susceptibility testing, bacteria and fungi panel. Format: cell-based.
Description: as §1

A word on the Solubility: it is the concentration that dissolves in the medium under given conditions. A lower Solubility goes with a poorly soluble substance. `C1COCCN1.C1COCCN1.COc1ccc(C=Cc2cc(OC)c(OC)c(OP(=O)(O)O)c2)cc1OP(=O)(O)O` [Compound 10k] gave a Solubility in data set [1] of over 40 mg/mL.

For `COc1ccc(/C=C\c2cc(O)c(OC)c(OC)c2)cc1O` [Compound 2a, Combretastatin A-3], in the data set with Cryptococcus neoformans, the MIC is reported as 50-100 μg/disk.

For the molecule `COc1ccc(/C=C/c2cc(OC)c(OC)c(OC)c2)c(O)c1O` [(E)-combretastatin A-1], the “antibacterial and antifungal activities (literature)” value in data set [2] was “antibacterial and antifungal activities”.

On to `COc1ccc(/C=C\c2cc(OC)c(OC)c(OP(=O)([O-])O)c2)cc1OP(=O)([O-])O.[Rb+].[Rb+]` [Compound 10d], for which the Solubility in data set [1] is over 60 mg/mL.

For the molecule `COc1ccc(/C=C\c2cc(OC)c(OC)c(OP(=O)([O-])O)c2)cc1OP(=O)([O-])O.[Na+].[Na+]` [Compound 10a, Sodium combretastatin A-3 3,3′-O-phosphate], in data set [3], the “cancer cell line inhibitory activity (in words)” value is given as “good cancer cell line inhibitory activity”. Further, the “activity in disk diffusion assays” value in data set [4] is listed as “not active”. In data set [1], this molecule yielded a Solubility of over 218 mg/mL.

Regarding `COc1ccc(/C=C\c2cc(OC)c(OC)c(OP(=O)([O-])O)c2)cc1OP(=O)([O-])O.[K+].[K+]` [Compound 10c], the “cancer cell line inhibitory activity (in words)” value in data set [3] is “good cancer cell line inhibitory activity”. For the same molecule, the Solubility in data set [1] is on record as over 228 mg/mL.

`COc1ccc(/C=C\c2cc(OC)c(OC)c(OP(=O)([O-])O)c2)cc1OP(=O)([O-])O.[Li+].[Li+]` [Compound 10b]: the Solubility in data set [1] is given as over 100 mg/mL.

Take `COc1ccc(/C=C\c2cc(OC)c(OC)c(OP(=O)(O)O)c2)cc1OP(=O)(O)O.NC(=O)c1cccnc1.NC(=O)c1cccnc1.NC(=O)c1cccnc1.NC(=O)c1cccnc1` [Compound 10l]: the Solubility in data set [1] is given as 27 mg/mL.

As to `COc1ccc(/C=C\c2cc(OC)c(OC)c(OP(=O)([O-])[O-])c2)cc1OP(=O)([O-])[O-].[Mg+2].[Mg+2]` [Compound 10h], in data set [1], the Solubility was found to be 10 mg/mL.
